Columns and labels:
[1] = mouse, in vivo, po
ENR+CD organoids = test: Primary screen: ATP (CellTiter-Glo 3D, CTG) cell number/viability, 2.5-D 384-well ENR+CD organoids; conditions: for Dose.FC.CTG (log2 fold change): primary screen;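 as to all read-outs here: compounds given at plating and again on day 3 over a 6-day differentiation from ENR+CV stem-cell-enriched precursors, ATP measured on day 6, plate median as control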
[2] = test system: lysozyme (LYZ) in intestinal organoids; test: Western blotting of lysozyme in 3D-cultured intestinal organoids; assay type: cell-based, mouse; conditions: ENR+CV, ENR+CD or ENR, 6 days
Source text: Western blotting. ISC-enriched organoids cultured in 3D Matrigel with ENRCV media were passaged to 24-well plate in 3D Matrigel with ENRCV. At day zero, media were replaced to ENR or ENRCD with or without indicated compounds, and media were replaced every other day. At day six, cells were harvested from Matrigel by mechanical disruption and suspended in basal media. Cell pellets were lysed with Pierce® IP lysis buffer (ThermoFisher, 87787) containing Halt™ Protease Inhibitor Cocktail, EDTA-Free (ThermoFisher, 87785) after 3-minute centrifuge at 300×g at 4° C. Cell extracts were resolved by NuPAGE® SDS-PAGE Gel system (ThermoFisher) and electroblotted onto polyvinylidene difluoride membranes using Criterion™ Blotter (Biorad). The membranes were blocked with 2% Blotting-Grade Blocker (Biorad, 1706404) in TBS-T (50 mM Tris-HCl, 150 mM NaCl, and 0.1% Tween 20, pH 8.0) and then probed with appropriate antibodies. Detection was performed using ECL Select™ Western Blotting Detection Reagent (Amersham, 45-000-999) and ImageQuant LAS4000 (GE Healthcare).
Western blotting. Organoid-containing gel was homogenized in basal medium and centrifuged at 300 rcf for 3 min. Organoid pellet was lysed with ice-cold Pierce IP Lysis Buffer (Thermo Fisher Scientific, #87787) containing Halt Protease Inhibitor Cocktail, EDTA-Free (Thermo Fisher Scientific, #87785) and incubated on ice for 20 min. The lysate was centrifuged at 17,000 rcf for 10 min, and the supernatant was combined with NuPAGE LDS Sample Buffer (Thermo Fisher Scientific, NP0007). Protein concentration was determined by Pierce 660 nm Protein Assay (Thermo Fisher Scientific, #22660) and normalized to the lowest concentration among each sample set. […] Chemiluminescent signals were detected by LAS4000 (GE Healthcare) using Amersham ECL Select Western Blotting Detection Reagent (GE Healthcare, #45-000-999), and total protein signals were obtained by Odyssey Imaging System (LI-COR Biosciences) using REVERT Total Protein Stain Kit (LI-COR Biosciences, #926-11010).

O=C(/C=C\n1cnc(-c2cc(C(F)(F)F)cc(C(F)(F)F)c2)n1)NNc1cnccn1 [KPT-330]
toxicity to mice (body weight) [1]: toxic to mice
toxicity in primary screening (ENR+CD organoids; concentrations higher than 160 nM, 6 days): toxic
Dose.FC.CTG (log2 fold change) (ENR+CD organoids; dose 0.08 uM): 0.210
Dose.FC.CTG (log2 fold change) (ENR+CD organoids; dose 0.40 uM): −0.657
Dose.FC.CTG (log2 fold change) (ENR+CD organoids; dose 2.00 uM): −0.894
Dose.FC.CTG (log2 fold change) (ENR+CD organoids; dose 10.00 uM): −1.876
LYZ abundance per-mass protein (Western blot) [2]: appreciably increase LYZ abundance

Source: patent US20220323406A1, “METHODS AND COMPOSITIONS FOR DIFFERENTIATING STEM CELLS” (Massachusetts Institute of Technology, priority 2019, published 2022)
